According to US9290788B2, “Device for determining or studying the state of stimulation of the natural defences of plants or portions of plants” (Institut National De La Recherche Agronomique, priority 2010, dated 2016):
Where “and” joins values, the source holds several entries; their conditions need not be identical. Equal values may be shown once.

Tests used:
[1] = test system: 28 target genes (defense genes) in apple tree leaves; test: Test 1: relative expression of the 28 defense genes (qPCR, ΔΔCt) in apple tree seedling leaves subjected to NDS treatments and abiotic stresses; assay type: in vivo, apple tree seedlings (Golden Delicious); conditions: for effect on the modulation of target gene expression (in words): Test 1; for Relative expression of ANS / Relative expression of PAL / Relative expression of PR-15 / Relative expression of PR-1 / Relative expression of PR-5 / Relative expression of PR-2 / Relative expression of PR-4 / Relative expression of PR-8 / Relative expression of PR-14: vs water control
[2] = test system: fire blight (Erwinia amylovora); conditions: Test 1, controlled conditions
[3] = test system: 28 target genes (defense genes) in apple tree leaves; test: Test 2: analysis of defenses, expression of the 28 genes (qPCR) in apple tree seedlings sprayed with 10 NDS candidates, with or without hydrogen peroxide; assay type: in vivo, apple tree seedlings (Golden Delicious)
[4] = +H2O2, J2, relative to water control
[5] = +H2O2, J3, relative to water control
[6] = +H2O2 (sprayed 24 hours after treatment), J2
[7] = +H2O2 (sprayed 24 hours after treatment), J3
[8] = −H2O2, J2, relative to water control
[9] = −H2O2, J3, relative to water control
[10] = abiotic stress, J2, relative to water control
[11] = abiotic stress, J3, relative to water control
[12] = abiotic stress, J1, relative to water control

CC(N)CC(=O)O (racemic) [Baba, DL-β-amino-n-butyric acid]
Relative expression APOX (log base 2) [1, 4]: 1.49 and 1.76
Relative expression JAR (log base 2) [1, 4]: −0.44 and −0.16
Relative expression POX (log base 2) [1, 4]: 2.20 and 2.28
Relative expression CAD (log base 2) [1, 5]: −0.15 and −0.29
Relative expression CalS (log base 2) [1, 5]: 2.10 and 1.88
direct stimulator versus potentiator: gene expression after additional H2O2 treatment ([1]; H2O2 sprayed 24 hours after treatment): triggers the expression of some genes (POX, Pect, for example)
effect on the modulation of target gene expression (in words) [1]: little effect on the modulations of genes
Relative expression of ANS [1, 6]: 1.41 log2 and 2.12 log2
Relative expression of PAL [1, 6]: 0.29 log2 and 0.55 log2
Relative expression of PR-15 [1, 6]: 0.84 log2 and 0.71 log2
Relative expression of PR-1 [1, 7]: 2.71 log2 and 1.77 log2
Relative expression of PR-5 [1, 7]: 1.91 log2 and 1.34 log2
Relative expression of PR-15 [1, 7]: 1.46 log2 and 2.06 log2
Relative expression of ANS ([1]; −H2O2, J2): 1.28 log2 and 1.53 log2
Relative expression of PAL ([1]; −H2O2, J2): 0.42 log2 and 0.27 log2
Relative expression of PAL ([1]; −H2O2, J3): 0.20 log2 and 0.29 log2
Relative expression CHS (log base 2) [1, 8]: 0.27 and 0.29
Relative expression DFR (log base 2) [1, 8]: 0.64 and 0.93
Relative expression GST (log base 2) [1, 8]: −0.05 and −0.34
Relative expression CHS (log base 2) [1, 9]: 0.19 and 0.31
Relative expression FPPS (log base 2) [1, 9]: 0.46 and 0.56
protection against fire blight [2]: no protective effect against fire blight

OO [H2O2, hydrogen peroxide]
ANS expression ([3]; J2 + H2O2): −0.63
CHS expression ([3]; J2 + H2O2): −0.80
DFR expression ([3]; J2 + H2O2): −0.65
FPPS expression ([3]; J2 + H2O2): 0.06
HMGR expression ([3]; J2 + H2O2): 1.05
PAL expression ([3]; J2 + H2O2): −0.56
PPO expression ([3]; J2 + H2O2): 1.20
PR1 expression ([3]; J2 + H2O2): 0.85
PR2 expression ([3]; J2 + H2O2): 3.69
PR4 expression ([3]; J2 + H2O2): 3.89
PR5 expression ([3]; J2 + H2O2): 0.91
PR8 expression ([3]; J2 + H2O2): 2.12
PR14 expression ([3]; J2 + H2O2): 1.32
PR15 expression ([3]; J2 + H2O2): −0.26
ANS expression ([3]; J3 + H2O2): −0.49
CHS expression ([3]; J3 + H2O2): −0.75
DFR expression ([3]; J3 + H2O2): −0.36
FPPS expression ([3]; J3 + H2O2): 0.08
HMGR expression ([3]; J3 + H2O2): 0.14
PAL expression ([3]; J3 + H2O2): −0.57
PPO expression ([3]; J3 + H2O2): 0.71
PR1 expression ([3]; J3 + H2O2): 1.41
PR2 expression ([3]; J3 + H2O2): 4.05
PR4 expression ([3]; J3 + H2O2): 2.59
PR5 expression ([3]; J3 + H2O2): 1.73
PR8 expression ([3]; J3 + H2O2): 1.73
PR14 expression ([3]; J3 + H2O2): 3.29
PR15 expression ([3]; J3 + H2O2): 1.57
effect on the modulation of target gene expression (in words) [1]: only slightly modulate the target gene expressions
Relative expression APOX (log base 2) [1, 10]: 0.41 and 0.38
Relative expression DFR (log base 2) [1, 10]: 0.50 and 0.80
Relative expression EIN3 (log base 2) [1, 10]: 1.44 and 1.53
Relative expression POX (log base 2) [1, 10]: 1.07 and 1.06
Relative expression WRKY (log base 2) [1, 10]: −0.04 and −0.12
Relative expression CAD (log base 2) [1, 11]: −0.72 and −0.54
Relative expression GST (log base 2) [1, 11]: 0.33 and 0.40
Relative expression LOX2 (log base 2) [1, 11]: 0.16 and 0.42
Relative expression of PR-2 ([1]; abiotic stress treatment, J2): 4.75 log2 and 3.92 log2
Relative expression of PR-4 ([1]; abiotic stress treatment, J2): 2.53 log2 and 4.27 log2
Relative expression of PR-8 ([1]; abiotic stress treatment, J2): 0.83 log2 and 0.79 log2
Relative expression of PR-2 ([1]; abiotic stress treatment, J3): 2.36 log2 and 3.38 log2

OO [H202]
ACCO expression ([3]; J2 + H2O2): 0.60
APOX expression ([3]; J2 + H2O2): −0.37
CAD expression ([3]; J2 + H2O2): −0.32
CSL expression ([3]; J2 + H2O2): 2.28
CalS expression ([3]; J2 + H2O2): −0.31
EDS1 expression ([3]; J2 + H2O2): 1.12
EIN3 expression ([3]; J2 + H2O2): −0.20
FAR expression ([3]; J2 + H2O2): 1.07
GST expression ([3]; J2 + H2O2): 0.21
JAR expression ([3]; J2 + H2O2): −0.62
LOX2 expression ([3]; J2 + H2O2): −0.39
PECT expression ([3]; J2 + H2O2): 0.01
POX expression ([3]; J2 + H2O2): 2.12
WRKY expression ([3]; J2 + H2O2): 1.42
ACCO expression ([3]; J3 + H2O2): 0.37
APOX expression ([3]; J3 + H2O2): 0.36
CAD expression ([3]; J3 + H2O2): 0.30
CSL expression ([3]; J3 + H2O2): 1.32
CalS expression ([3]; J3 + H2O2): 0.04
EDS1 expression ([3]; J3 + H2O2): 1.44
EIN3 expression ([3]; J3 + H2O2): 0.33
FAR expression ([3]; J3 + H2O2): 0.12
GST expression ([3]; J3 + H2O2): 0.30
JAR expression ([3]; J3 + H2O2): 0.09
LOX2 expression ([3]; J3 + H2O2): −0.03
PECT expression ([3]; J3 + H2O2): 1.53
POX expression ([3]; J3 + H2O2): 1.61
WRKY expression ([3]; J3 + H2O2): 1.27

C[n+]1ccc(-c2cc[n+](C)cc2)cc1 [Paraquat, paraquat dichloride x-hydrate]
effect on the modulation of target gene expression (in words) [1]: strongly activates some genes
Relative expression ACCO (log base 2) [1, 12]: −1.33
Relative expression APOX (log base 2) [1, 12]: 0.00
Relative expression CAD (log base 2) [1, 12]: 0.04
Relative expression CHS (log base 2) [1, 12]: −1.56
Relative expression CSL (log base 2) [1, 12]: 2.29
Relative expression CalS (log base 2) [1, 12]: 0.00
Relative expression DFR (log base 2) [1, 12]: −0.74
Relative expression EDS1 (log base 2) [1, 12]: 0.83
Relative expression EIN3 (log base 2) [1, 12]: 0.00
Relative expression FPPS (log base 2) [1, 12]: 1.02
Relative expression Far (log base 2) [1, 12]: 2.76
Relative expression GST (log base 2) [1, 12]: 1.99
Relative expression HMGR (log base 2) [1, 12]: 2.85
Relative expression JAR (log base 2) [1, 12]: 0.00
Relative expression LOX2 (log base 2) [1, 12]: −0.58
Relative expression POX (log base 2) [1, 12]: 0.00
Relative expression PPO (log base 2) [1, 12]: 0.67
Relative expression Pect (log base 2) [1, 12]: 0.00
Relative expression WRKY (log base 2) [1, 12]: 4.01
Relative expression ACCO (log base 2) [1, 10]: 0.02
Relative expression APOX (log base 2) [1, 10]: 2.01
Relative expression CAD (log base 2) [1, 10]: 0.27
Relative expression CHS (log base 2) [1, 10]: −1.49
Relative expression CSL (log base 2) [1, 10]: 4.42
Relative expression CalS (log base 2) [1, 10]: 0.42
Relative expression DFR (log base 2) [1, 10]: −1.14
Relative expression EDS1 (log base 2) [1, 10]: 2.89
Relative expression EIN3 (log base 2) [1, 10]: 0.21
Relative expression FPPS (log base 2) [1, 10]: 0.15
Relative expression Far (log base 2) [1, 10]: 2.30
Relative expression GST (log base 2) [1, 10]: 1.83
Relative expression HMGR (log base 2) [1, 10]: 1.20
Relative expression JAR (log base 2) [1, 10]: −0.81
Relative expression LOX2 (log base 2) [1, 10]: −0.54
Relative expression POX (log base 2) [1, 10]: 4.26
Relative expression PPO (log base 2) [1, 10]: 6.27
Relative expression Pect (log base 2) [1, 10]: 2.17
Relative expression WRKY (log base 2) [1, 10]: 6.37
Relative expression ACCO (log base 2) [1, 11]: 0.41
Relative expression APOX (log base 2) [1, 11]: 1.48
Relative expression CAD (log base 2) [1, 11]: −0.51
Relative expression CHS (log base 2) [1, 11]: −2.04
Relative expression CSL (log base 2) [1, 11]: 5.43
Relative expression CalS (log base 2) [1, 11]: 0.01
Relative expression DFR (log base 2) [1, 11]: −2.09
Relative expression EDS1 (log base 2) [1, 11]: 2.28
Relative expression EIN3 (log base 2) [1, 11]: −0.11
Relative expression FPPS (log base 2) [1, 11]: −1.83
Relative expression Far (log base 2) [1, 11]: 1.85
Relative expression GST (log base 2) [1, 11]: 0.80
Relative expression HMGR (log base 2) [1, 11]: −0.24
Relative expression JAR (log base 2) [1, 11]: −2.46
Relative expression LOX2 (log base 2) [1, 11]: −2.37
Relative expression POX (log base 2) [1, 11]: −0.53
Relative expression PPO (log base 2) [1, 11]: 4.63
Relative expression Pect (log base 2) [1, 11]: −2.82
Relative expression WRKY (log base 2) [1, 11]: 2.76
Relative expression of ANS ([1]; abiotic stress treatment, J1): 0.00 log2
Relative expression of PAL ([1]; abiotic stress treatment, J1): 1.99 log2
Relative expression of PR-1 ([1]; abiotic stress treatment, J1): 0.55 log2
Relative expression of PR-2 ([1]; abiotic stress treatment, J1): 4.09 log2
Relative expression of PR-4 ([1]; abiotic stress treatment, J1): 7.10 log2
Relative expression of PR-5 ([1]; abiotic stress treatment, J1): 0.00 log2
Relative expression of PR-8 ([1]; abiotic stress treatment, J1): 0.00 log2
Relative expression of PR-14 ([1]; abiotic stress treatment, J1): 2.61 log2
Relative expression of PR-15 ([1]; abiotic stress treatment, J1): 0.00 log2
Relative expression of ANS ([1]; abiotic stress treatment, J2): −2.09 log2
Relative expression of PAL ([1]; abiotic stress treatment, J2): 2.56 log2
Relative expression of PR-1 ([1]; abiotic stress treatment, J2): 3.00 log2
Relative expression of PR-2 ([1]; abiotic stress treatment, J2): 5.88 log2
Relative expression of PR-4 ([1]; abiotic stress treatment, J2): 6.93 log2
Relative expression of PR-5 ([1]; abiotic stress treatment, J2): −3.05 log2
Relative expression of PR-8 ([1]; abiotic stress treatment, J2): 5.12 log2
Relative expression of PR-14 ([1]; abiotic stress treatment, J2): 6.04 log2
Relative expression of PR-15 ([1]; abiotic stress treatment, J2): 4.77 log2
Relative expression of ANS ([1]; abiotic stress treatment, J3): −0.78 log2
Relative expression of PAL ([1]; abiotic stress treatment, J3): 0.66 log2
Relative expression of PR-1 ([1]; abiotic stress treatment, J3): 0.54 log2
Relative expression of PR-2 ([1]; abiotic stress treatment, J3): 2.53 log2
Relative expression of PR-4 ([1]; abiotic stress treatment, J3): 6.63 log2
Relative expression of PR-5 ([1]; abiotic stress treatment, J3): −8.56 log2
Relative expression of PR-8 ([1]; abiotic stress treatment, J3): 5.36 log2
Relative expression of PR-14 ([1]; abiotic stress treatment, J3): 1.28 log2
Relative expression of PR-15 ([1]; abiotic stress treatment, J3): −0.34 log2
